{"source": "patent US11656224B2", "about": "“Multivalent glycan microarray platform” (Z Biotech, LLC, priority 2016, dated 2023)", "key": {"[1]": {"molecular_target": "T1, peanut agglutinin (PNA) lectin (Arachis hypogaea, UniProt P02872)", "T1 sequence (P02872 24-273)": "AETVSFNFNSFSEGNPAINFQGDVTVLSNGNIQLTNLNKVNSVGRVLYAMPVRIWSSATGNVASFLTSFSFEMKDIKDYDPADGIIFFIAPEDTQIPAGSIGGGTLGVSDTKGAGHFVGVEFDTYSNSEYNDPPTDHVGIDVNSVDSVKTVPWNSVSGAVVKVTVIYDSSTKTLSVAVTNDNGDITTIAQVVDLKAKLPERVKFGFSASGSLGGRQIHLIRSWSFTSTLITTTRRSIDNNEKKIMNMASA", "assay": "PNA lectin binding to glycan array on polystyrene polymer slides", "details": "PNA 10 μg/ml, PAMAM G3 NHS, Cy5 labeled streptavidin", "excerpt": "(§1) (PAMAM) dendrimer generation 3 functionalized with N-hydroxysuccinimide (NHS) groups (Example 5). The glycan array was fabricated same as described in Example 7. Biotinylated lectins (e.g., SBA, FIG. 7; PNA, FIG. 8; and ConA, FIG. 9) were used for examine the binding on the glycan array by detection with a Cy5 labeled streptavidin."}, "[2]": {"molecular_target": "T2, Soybean agglutinins (SBA) lectin (Glycine max, UniProt P05046)", "T2 sequence (P05046 33-285)": "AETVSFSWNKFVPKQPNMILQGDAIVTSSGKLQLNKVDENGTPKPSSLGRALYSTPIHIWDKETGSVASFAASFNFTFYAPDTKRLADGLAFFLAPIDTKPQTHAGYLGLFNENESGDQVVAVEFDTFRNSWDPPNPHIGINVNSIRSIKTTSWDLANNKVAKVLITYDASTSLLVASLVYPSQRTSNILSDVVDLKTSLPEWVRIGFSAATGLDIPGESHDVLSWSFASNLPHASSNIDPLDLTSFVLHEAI", "assay": "SBA lectin binding to O-mucin glycan microarray (NHS PAMAM G2 glass slide)", "details": "SBA 1 μg/ml; O-mucin glycan microarray on glass; Cy3 labeled streptavidin", "method": "For this purpose, a library containing 12 glycan probes representing 0-GalNAc glycan structures in mucin (Table 2) was immobilized onto a glass slide coated with PAMAM dendrimer (generation 2) terminated with NHS functional groups (Example 1). Each glycan was dissolved in a Print Buffer containing 150 mM sodium phosphate, (pH 8.5) with 100 μM concentration and printed onto the slides using ˜1 nL probe. The printing process was performed in 60% relative humidity. After printing the glycan immobilization can be enhanced by incubation at room temperature for 12 hours in 60% relative humidity.\nThe carbohydrate-protein interaction can be investigated by interrogating the microarray with lectins or glycan-binding proteins. In detail, first the arrayed slides were briefly rinsed in MilliQ water and then affixed into an assay chamber. The arrays were treated with a blocking buffer, such as 25 mM ethanolamine in 100 mM boric acid, 0.01% Tween 20 (pH 8.5). A biotinylated lectin (e.g., Helix pomatia Agglutinin (HPA)) or a glycan-binding protein dissolved in an Assay Buffer was subjected to the array for incubation. The Assay Buffer could be 20 mM Tris-HCl, 150 mM NaCl, 0.05% Tween 20, 1 mM CaCl2), 1 mM MgCl2, 1% BSA (pH 7.6). The protein-carbohydrate binding was detected by applying a Cy3 labeled streptavidin. The binding intensities—relative fluorescence units (RFU)—were quantified by using a fluorescence-based microarray scanner (FIG. 6)."}, "[3]": {"molecular_target": "T2, Soybean agglutinins (SBA) lectin", "assay": "SBA lectin binding to glycan array on polystyrene polymer slides", "details": "SBA 10 μg/ml, PAMAM G3 NHS, Cy5 labeled streptavidin", "excerpt": "as §1"}, "[4]": {"system": "HIV broadly neutralizing antibody 2G12", "assay": "2G12 antibody binding to high-mannose N-glycans on hydrazide substrate with or without aniline", "details": "aniline-coated substrate", "excerpt": "2G12 is pre-complexed with Cy3 labeled anti-Human IgG (1:4 ratio). […] 2G12 is pre-complexed with Cy3 labeled anti-Human IgG (1:4 ratio). […] CD15 antibody is detected with Alexa Fluor 555-labeled anti-mouse IgM secondary antibody. […] The aniline can serve as a catalyst to increase aldehyde-hydrazide coupling efficiency, thus enhance the immobilization capability for glycans containing free reducing-end. The use of aniline as a nucleophilic catalyst accelerates bond formation through a Schiff base intermediate (mechanism in FIG. 4D)."}}}
{"compound": "CC(=O)NC1C(OCC(N)C(=O)O)OC(CO)C(O)C1OC1OC(CO)C(O)C(O)C1O", "note": "(stereo not drawn) [T-Ser, Galβ1-3GalNAcα1-Ser]", "values": [{"measurement": "binding to PNA lectin", "setting": "[1]", "result": "specific binding"}]}
{"compound": "CC(=O)NC1C(OC(C)C(N)C(=O)O)OC(CO)C(O)C1OC1OC(CO)C(O)C(O)C1O", "note": "(stereo not drawn) [T-Thr, Galβ1-3GalNAcα1-Thr]", "values": [{"measurement": "binding to PNA lectin", "setting": "[1]", "result": "specific binding"}]}
{"compound": "CC(=O)N[C@H]1[C@@H](OC[C@H](N)C(=O)O)O[C@H](CO)[C@H](O)[C@@H]1O", "note": "[Tn-Ser, α-GalNAc-Ser]", "values": [{"measurement": "binding to SBA lectin", "setting": "[2]", "result": "specific binding"}]}
{"compound": "CC(=O)N[C@H]1[C@@H](O[C@H](C)[C@H](N)C(=O)O)O[C@H](CO)[C@H](O)[C@@H]1O", "note": "[Tn-Thr, α-GalNAc-Thr]", "values": [{"measurement": "binding to SBA lectin", "setting": "[2]", "result": "specific binding"}, {"measurement": "binding to SBA lectin", "setting": "[3]", "result": "specific binding"}]}
{"compound": "H2N-APGST*APP-NH2 (*α-GalNAc)", "values": [{"measurement": "binding to SBA lectin", "setting": "[2]", "result": "specific binding"}, {"measurement": "binding to SBA lectin", "setting": "[3]", "result": "specific binding"}]}
{"compound": "H2N-TSAPDT*RPAP-NH2 (*α-GalNAc)", "values": [{"measurement": "binding to SBA lectin", "setting": "[2]", "result": "specific binding"}]}
{"compound": "[Manα1-2] [Manα1-2] Manα1-6(Manα1-3)Manα1-6(Manα1-2Manα1-3)Manβ1-4GlcNAcβ1-4GlcNAc-(3 isomers) [Glycan 90]", "values": [{"measurement": "binding to 2G12 antibody", "setting": "[4]", "result": "specific binding"}]}
